Data set [1] deals with Raji. The experiment in a line: Inhibition of 12-O-tetradecanoylphorbol-13-acetate-induced EBV-early antigen activation in human Raji cells assessed as EA induction at 10 molar ratio relative to 12-O-tetradecanoylphorbol-13-acetate by immunofluorescence technique. Format: cell-based. Further details: scale not given: the % may be the effect or the level left. The conditions noted are these: human gammaherpesvirus 4.

The nature of data set [2]: Cytotoxicity against human Raji cells assessed as cell viability at 1000 molar ratio by trypan blue staining method. Format: cell-based. The conditions noted are these: read-out: Activity.
Data set [3] concerns Raji. The experiment in a line: Inhibition of 12-O-tetradecanoylphorbol-13-acetate-induced EBV-early antigen activation in human Raji cells assessed as EA induction at 500 molar ratio relative to 12-O-tetradecanoylphorbol-13-acetate by immunofluorescence technique. Format: cell-based. Further details: scale not given: the % may be the effect or the level left. Particulars: human gammaherpesvirus 4.

Data set [4] relates to Raji. The experiment in a line: Inhibition of 12-O-tetradecanoylphorbol-13-acetate-induced EBV-early antigen activation in human Raji cells assessed as EA induction at 1000 molar ratio relative to 12-O-tetradecanoylphorbol-13-acetate by immunofluorescence technique. Format: cell-based. The conditions noted are these: human gammaherpesvirus 4. Further details: scale not given: the % may be the effect or the level left.

A short description of data set [5]: Inhibition of 12-O-tetradecanoylphorbol-13-acetate-induced EBV-early antigen activation in human Raji cells assessed per 32 pmol TPA by immunofluorescence technique. Format: cell-based, human gammaherpesvirus 4.
The test system of data set [6] is Raji. The experiment in a line: Inhibition of 12-O-tetradecanoylphorbol-13-acetate-induced EBV-early antigen activation in human Raji cells assessed as EA induction at 100 molar ratio relative to 12-O-tetradecanoylphorbol-13-acetate by immunofluorescence technique. Format: cell-based. Also on record: scale not given: the % may be the effect or the level left. Particulars: human gammaherpesvirus 4.

Consider `CC(=O)OC1C[C@H]([C@H](C)CC/C=C(/C)C(=O)O)[C@@]2(C)CC=C3C(=CC[C@H]4C(C)(C)C(=O)CC[C@]34C)[C@]12C` (some centres undefined), for which the Activity with Raji [1] was 95.3%; in the data set with Raji [3] it was 26.4%; with Raji [4], -0%; in the data set on Raji [6], 74.6%. The viability at 1000 molar ratio in data set [2] worked out at 70%. The compound further gave an IC50 in data set [5] of 281 molar ratio.
For the compound `CC1=C(/C=C/C(C)=C/C=C/C(C)=C/C=C/C=C(C)/C=C/C=C(C)/C=C/C2=C(C)CCCC2(C)C)C(C)(C)CCC1` [BETA CAROTENE], the Activity was found to be 100% with Raji [1] and 8.6% in the data set on Raji [4]. In addition, the IC50 in data set [5] came out at 400 molar ratio.
Consider `C[C@H](CC(=O)C[C@@H](C)[C@H]1CC(=O)[C@@]2(C)C3=C(C(=O)C[C@]12C)[C@@]1(C)CCC(=O)C(C)(C)[C@@H]1CC3=O)C(=O)O` [GANODERIC ACID E], for which the Activity in the data set with Raji [1] was 97.4%; in the data set on Raji [3], 28.3%; with Raji [4], -0%; in the data set with Raji [6], 79%. Further, in data set [2], the viability at 1000 molar ratio is 70%. This compound returned an IC50 in data set [5] of 281 molar ratio.
Turning to `CC(=O)O[C@@H]1C(=O)C2=C(C(=O)C[C@H]3C(C)(C)C(=O)CC[C@]23C)[C@]2(C)C(=O)C[C@H]([C@H](C)CC(=O)CC(C)C(=O)O)[C@@]12C` (some centres undefined) [GANODERIC ACID F], the Activity with Raji [1] amounted to 98.7%; in the data set on Raji [3], 28.5%; in the data set on Raji [4] it was 3.6%; with Raji [6] it was 77.1%. Moreover, in data set [2], the viability at 1000 molar ratio came out at 70%. Also, the IC50 in data set [5] is 293 molar ratio.
For `C[C@H](CCC(=O)O)[C@H]1CC(=O)[C@@]2(C)C3=C(C(=O)C[C@]12C)[C@@]1(C)CCC(=O)C(C)(C)[C@@H]1C[C@@H]3O` [LUCIDENIC ACID A], the Activity is 96.1% with Raji [1], 22.7% in the data set on Raji [3], -0% in the data set with Raji [4] and 73% with Raji [6]. Moreover, the viability at 1000 molar ratio in data set [2] came out at 70%. In data set [5], this compound had an IC50 of 280 molar ratio.
For the compound `C[C@H](CCC(=O)O)[C@H]1CC(=O)[C@@]2(C)C3=C(C(=O)[C@@H](O)[C@]12C)[C@@]1(C)CC[C@H](O)C(C)(C)[C@@H]1C[C@@H]3O` [LUCIDENIC ACID C], the Activity is 93.1% in the data set on Raji [1], 24% in the data set with Raji [3], -0% with Raji [4] and 72.6% in the data set with Raji [6]. In addition, the viability at 1000 molar ratio in data set [2] was 70%. In addition, the IC50 in data set [5] came to 284 molar ratio.
Consider `CC(=O)O[C@@H]1C(=O)C2=C(C(=O)C[C@H]3C(C)(C)C(=O)CC[C@]23C)[C@]2(C)C(=O)C[C@H]([C@H](C)CCC(=O)O)[C@@]12C` [LUCIDENIC ACID D2], for which the Activity came to 96.1% in the data set with Raji [1], 26.1% in the data set with Raji [3], 2% with Raji [4] and 73.8% in the data set with Raji [6]. In data set [2], the viability at 1000 molar ratio amounted to 70%. In data set [5], this compound displayed an IC50 of 287 molar ratio.
As for `CC(=O)O[C@@H]1C(=O)C2=C([C@@H](O)C[C@H]3C(C)(C)[C@@H](O)CC[C@]23C)[C@]2(C)C(=O)C[C@H]([C@H](C)CCC(=O)O)[C@@]12C` [LUCIDENIC ACID P], the Activity is 96.6% in the data set on Raji [1], 27.5% in the data set on Raji [3], -0% in the data set on Raji [4] and 74.2% in the data set on Raji [6]. The viability at 1000 molar ratio in data set [2] stood at 70%. The IC50 in data set [5] stood at 286 molar ratio.
Turning to `CC(=O)O[C@@H]1C(=O)C2=C(C(=O)C[C@H]3C(C)(C)[C@@H](O)CC[C@]23C)[C@]2(C)C(=O)C[C@H]([C@H](C)CCC(=O)O)[C@@]12C` [LUDICENIC ACID E2], the Activity in the data set on Raji [1] is 94%; in the data set on Raji [3] it was 23.5%; with Raji [4], -0%; with Raji [6], 73.1%. The viability at 1000 molar ratio in data set [2] came out at 70%. This compound also registered an IC50 in data set [5] of 280 molar ratio.
As for `COC(=O)C(C)CC(=O)C[C@@H](C)[C@H]1CC(=O)[C@@]2(C)C3=C(C(=O)[C@@H](OC(C)=O)[C@]12C)[C@@]1(C)CCC(=O)C(C)(C)[C@@H]1CC3=O` (some centres undefined) [METHYL GANODERATE F], the Activity in the data set on Raji [1] was determined as 100%; in the data set on Raji [3], 26.4%; in the data set on Raji [4], 2.3%; in the data set on Raji [6] it was 75.3%. Also, the viability at 1000 molar ratio in data set [2] stood at 70%. This compound yielded an IC50 in data set [5] of 289 molar ratio.
As for `COC(=O)CC[C@@H](C)[C@H]1CC(=O)[C@@]2(C)C3=C(C(=O)C[C@]12C)[C@@]1(C)CCC(=O)C(C)(C)[C@@H]1C[C@@H]3O` [METHYL LUCIDENATE A], the Activity in the data set with Raji [1] was 95%; with Raji [3], 24.9%; in the data set on Raji [4] it was -0%; with Raji [6], 75.1%. For the same compound, the viability at 1000 molar ratio in data set [2] was found to be 70%. For the same compound, in data set [5], the IC50 was 287 molar ratio.
As to `COC(=O)CC[C@@H](C)[C@H]1CC(=O)[C@@]2(C)C3=C(C(=O)[C@@H](OC(C)=O)[C@]12C)[C@@]1(C)CCC(=O)C(C)(C)[C@@H]1CC3=O` [METHYL LUCIDENATE D2], the Activity was determined as 98% with Raji [1], 29.3% in the data set with Raji [3], 2.2% in the data set with Raji [4] and 76.9% in the data set on Raji [6]. Moreover, the viability at 1000 molar ratio in data set [2] was determined as 70%. For the same compound, in data set [5], the IC50 is reported as 290 molar ratio.
As for `COC(=O)CC[C@@H](C)[C@H]1CC(=O)[C@@]2(C)C3=C(C(=O)[C@@H](OC(C)=O)[C@]12C)[C@@]1(C)CC[C@H](O)C(C)(C)[C@@H]1CC3=O` [METHYL LUCIDENATE E2], the Activity stood at 95.4% in the data set on Raji [1], 27.9% in the data set with Raji [3], 1.2% in the data set on Raji [4] and 76% with Raji [6]. For the same compound, in data set [2], the viability at 1000 molar ratio was 70%. This compound also showed an IC50 in data set [5] of 288 molar ratio.
`COC(=O)CC[C@@H](C)[C@H]1CC(=O)[C@@]2(C)C3=C(C(=O)C[C@]12C)[C@@]1(C)CCC(=O)C(C)(C)[C@@H]1CC3=O` [METHYL LUCIDENATE F]: the Activity with Raji [1] amounted to 98.3%; in the data set on Raji [3], 26.8%; in the data set on Raji [4], 2.1%; in the data set on Raji [6], 75.4%. Also, the viability at 1000 molar ratio in data set [2] was 70%. In data set [5], this compound displayed an IC50 of 285 molar ratio.
For the compound `COC(=O)CC[C@@H](C)[C@H]1CC(=O)[C@@]2(C)C3=C(C(=O)[C@@H](O)[C@]12C)[C@@]1(C)CC[C@H](O)C(C)(C)[C@@H]1CC3=O` [METHYL LUCIDENATE L], the Activity in the data set on Raji [1] is 92.6%; with Raji [3] it was 21.7%; in the data set on Raji [4] it was -0%; in the data set on Raji [6], 71.9%. Further, the viability at 1000 molar ratio in data set [2] came to 70%. Moreover, the IC50 in data set [5] came to 275 molar ratio.
Consider `COC(=O)CC[C@@H](C)[C@H]1CC(=O)[C@@]2(C)C3=C(C(=O)[C@@H](OC(C)=O)[C@]12C)[C@@]1(C)CC[C@H](O)C(C)(C)[C@@H]1C[C@@H]3O` [METHYL LUCIDENATE P], for which the Activity amounted to 97.6% in the data set on Raji [1], 28.9% in the data set with Raji [3], 2.3% in the data set with Raji [4] and 77.4% with Raji [6]. Also, the viability at 1000 molar ratio in data set [2] worked out at 70%. Besides, the IC50 in data set [5] was 293 molar ratio.
Turning to `COC(=O)CC[C@@H](C)[C@H]1C[C@H](O)[C@@]2(C)C3=C(C(=O)C[C@]12C)[C@@]1(C)CCC(=O)C(C)(C)[C@@H]1C[C@@H]3O` [METHYL LUCIDENATE Q], the Activity in the data set on Raji [1] is 95.4%; with Raji [3], 24.6%; in the data set with Raji [4], -0%; in the data set with Raji [6], 73.7%. Besides, the viability at 1000 molar ratio in data set [2] was 70%. This compound also showed an IC50 in data set [5] of 283 molar ratio.

The values above are taken from ChEMBL document CHEMBL1147265, “Lucidenic acids P and Q, methyl lucidenate P, and other triterpenoids from the fungus Ganoderma lucidum and their inhibitory effects on Epstein-Barr virus activation” (J Nat Prod, 2003).
